Like-named read-outs stand apart in the source and are kept apart here.
Assays:
Type in all cases: in vivo
Leucania separata = test: Insecticidal activity against Leucania separata, airbrush spray on corn leaf sections; settings: Mythimna separata, 72 h; dose 0.05 mg/L, 3 days after the treatment, 3rd instar larvae; read-out: lethality rate against Leucania separata
Experimental: (§1) After being dissolved in a mixed solvent of acetone/methanol (1:1), the test compound was diluted with water containing 0.1% (wt) Tween 80 to the desired concentration.
(§2) With Leucania separata, Plutella xylostella, and Chilo suppressalis as targets, airbrush spray method was used for the determination of the insecticidal activity.
(§3) Determination method: Corn leaves were cut into 2 cm leaf sections, and Airbrush spray treatment was carried out at a pressure of 10 psi (approximately 0.7 kg/cm^2) on the front and back sides of each leaf section, with a spray volume of the compound to be tested of 0.5 ml. After drying in the shade, 10 of 3rd instar larvae were introduced for each treatment, and each treatment was repeated 3 times. After the treatment, it was placed in an observation room at 25° C. and a relative humidity of 60-70%, and 3 days after the treatment, the number of surviving insects was investigated, and the mortality rate was calculated.

Plutella xylostella = test: Insecticidal activity against Plutella xylostella, airbrush spray on cabbage leaf discs; settings: foliar, 72 h; for pest or weed control at 5 µg/mL: 5 mg/L, Table 5, read-out: Lethality rate (%, 3 days after the treatment) 5 mg/L
Experimental: as §1, §2
as §3, with “Cabbage” for “Corn”, “punched” for “cut”, “into leaf discs with a diameter of” for “into”, “with a puncher,” for “leaf sections,”, “disc,” for “section,”, “times for.” for “times.”

Chilo suppressalis = test: Insecticidal activity against Chilo suppressalis, sprayed Oryza sativa seedlings/stalks; settings: for pest or weed control at 0.25 µg/mL / pest or weed control at 0.5 µg/mL / pest or weed control at 1 µg/mL: Chilo suppressalis, 72 h, 3 days after the treatment, 3rd instar larvae, read-out: lethality rate against Chilo suppressalis; for pest or weed control at 0.25 µg/mL: dose 0.25 mg/L; for pest or weed control at 0.5 µg/mL: dose 0.5 mg/L; for pest or weed control at 1 µg/mL: dose 1 mg/L
Experimental: as §1, §2
Determination method: 1) Preparation of Oryza sativa seedlings: Oryza sativa was cultivated in a constant temperature room (a temperature of 26-28V, a relative humidity of about 60-80%, and a light illumination of 16 hL:8 hD) in a small plastic cup with a diameter of 4.5 cm and a height of 4 cm, and when the Oryza sativa grew up to the 4-5 leaf stage, robust and consistent Oryza sativa seedlings were selected for chemical treatment, and 3 repetitions were performed for each treatment. 2) Preparation for test insects: Chilo suppressalis at 3rd instar larvae were raised continuously indoors. 3) The Oryza sativa stems were sprayed and insects were introduced. Spraying was performed uniformly on the whole plant of the Oryza sativa seedlings, with 15 ml of compound solution for each treatment. The blank control was treated first, and then the above operations were repeated in the order of the test concentration from low to high. After the Oryza sativa seedlings were sprayed, they were placed in a cool place to dry the liquid, and about 5 cm of stalks at the base of the stems were cut and fed to the test insects. A glass petri dish with a diameter of 90 mm was placed with filter paper at the bottom of the dish, and then was moisturized by adding water. After that, about 5 rice stalks and 10 larvae were placed in each dish, and the petri dish was sealed with a non-woven fabric and placed in a constant temperature room for cultivation. The number of remaining live insects was investigated 3 days after the treatment.

[1] = dose 0.5 mg/L, 3 days after the treatment, 3rd instar larvae, read-out: lethality rate against Plutella xylostella
[2] = dose 1 mg/L, 3 days after the treatment, 3rd instar larvae, read-out: lethality rate against Plutella xylostella
[3] = dose 0.05 mg/L, 3 days after the treatment, 3rd instar larvae, read-out: lethality rate against Plutella xylostella
[4] = 0.05 mg/L, parallel comparison test, Table 5, read-out: Lethality rate (%, 3 days after the treatment) 0.05 mg/L
[5] = 0.5 mg/L, parallel comparison test, Table 5, read-out: Lethality rate (%, 3 days after the treatment) 0.5 mg/L
[6] = 1 mg/L, parallel comparison test, Table 5, read-out: Lethality rate (%, 3 days after the treatment) 1 mg/L

Row | SMILES | pest or weed control at 0.05 µg/mL (Leucania separata) | pest or weed control at 0.5 µg/mL (Plutella xylostella; [1]) | pest or weed control at 1 µg/mL (Plutella xylostella; [2]) | pest or weed control at 0.25 µg/mL (Chilo suppressalis) | pest or weed control at 0.5 µg/mL (Chilo suppressalis) | pest or weed control at 1 µg/mL (Chilo suppressalis) | pest or weed control at 0.05 µg/mL (Plutella xylostella; [3]) | pest or weed control at 0.05 µg/mL (Plutella xylostella; [4]) | pest or weed control at 0.5 µg/mL (Plutella xylostella; [5]) | pest or weed control at 1 µg/mL (Plutella xylostella; [6]) | pest or weed control at 5 µg/mL (Plutella xylostella; parallel comparison test) | Lethality rate (%, 3 days after the treatment) 0.5 mg/L (Chilo suppressalis; 0.5 mg/L, parallel comparison test, Table 6) | Lethality rate (%, 3 days after the treatment) 1 mg/L (Chilo suppressalis; 1 mg/L, parallel comparison test, Table 6) | Lethality rate (%, 3 days after the treatment) 10 mg/L (Chilo suppressalis; 10 mg/L, parallel comparison test, Table 6)
1 | N#CCN(C(=O)c1ccc(C(F)(F)F)nc1)c1cccc(C(=O)Nc2c(I)cc(C(F)(C(F)(F)F)C(F)(F)F)cc2C(F)(F)F)c1F [Compound 29] | ≥ 90% | ≥ 90% | ≥ 90% | ≥ 90% | ≥ 90% | ≥ 90% |  |  |  |  |  |  |  | 
2 | N#CCCCN(C(=O)c1ccc(F)nc1)c1cccc(C(=O)Nc2c(Br)cc(C(F)(C(F)(F)F)C(F)(F)F)cc2C(F)(F)F)c1F [Compound 11] | ≥ 90% | ≥ 90% | ≥ 90% | ≥ 90% | ≥ 90% | ≥ 90% | ≥ 90% |  |  |  |  |  |  | 
3 | N#CCCN(C(=O)c1ccc(C(F)(F)F)nc1)c1cccc(C(=O)Nc2c(Br)cc(C(F)(C(F)(F)F)C(F)(F)F)cc2C(F)(F)F)c1F [Compound 26] | ≥ 90% | ≥ 90% | ≥ 90% | ≥ 90% | ≥ 90% | ≥ 90% |  | 73.3% | 96.7% | 100% | 100% |  |  | 
4 | N#CCCCCN(C(=O)c1ccc(F)nc1)c1cccc(C(=O)Nc2c(I)cc(C(F)(C(F)(F)F)C(F)(F)F)cc2C(F)(F)F)c1F [Compound 16] | ≥ 90% | ≥ 90% | ≥ 90% | ≥ 90% | ≥ 90% | ≥ 90% | ≥ 90% |  |  |  |  |  |  | 
5 | N#CCN(C(=O)c1ccc(F)nc1)c1cccc(C(=O)Nc2c(Br)cc(C(F)(C(F)(F)F)C(F)(F)F)cc2Br)c1F [Compound 1] | ≥ 90% |  | ≥ 90% |  |  | ≥ 90% |  |  |  |  |  |  |  | 
6 | N#CCCCCN(C(=O)c1ccc(F)nc1)c1cccc(C(=O)Nc2c(Br)cc(C(F)(C(F)(F)F)C(F)(F)F)cc2C(F)(F)F)c1F [Compound 12] | ≥ 90% | ≥ 90% | ≥ 90% | ≥ 90% | ≥ 90% | ≥ 90% | ≥ 90% |  |  |  |  |  |  | 
7 | N#CCCCCN(C(=O)c1ccc(C(F)(F)F)nc1)c1cccc(C(=O)Nc2c(I)cc(C(F)(C(F)(F)F)C(F)(F)F)cc2C(F)(F)F)c1F [Compound 32] | ≥ 90% | ≥ 90% | ≥ 90% |  | ≥ 90% | ≥ 90% |  |  |  |  |  |  |  | 
8 | N#CCN(C(=O)c1ccc(C(F)(F)F)nc1)c1cccc(C(=O)Nc2c(Br)cc(C(F)(C(F)(F)F)C(F)(F)F)cc2C(F)(F)F)c1F [Compound 25] | ≥ 90% | ≥ 90% | ≥ 90% | ≥ 90% | ≥ 90% | ≥ 90% |  |  |  |  |  |  |  | 
9 | N#CCCN(C(=O)c1ccc(F)nc1)c1cccc(C(=O)Nc2c(Br)cc(C(F)(C(F)(F)F)C(F)(F)F)cc2I)c1F [Compound 6] | ≥ 90% |  | ≥ 90% |  |  | ≥ 90% |  |  |  |  |  |  |  | 
10 | N#CCN(C(=O)c1ccc(F)nc1)c1cccc(C(=O)Nc2c(Br)cc(C(F)(C(F)(F)F)C(F)(F)F)cc2I)c1F [Compound 5] | ≥ 90% |  | ≥ 90% |  |  | ≥ 90% |  |  |  |  |  |  |  | 
11 | N#CCCN(C(=O)c1ccc(F)nc1)c1cccc(C(=O)Nc2c(Br)cc(C(F)(C(F)(F)F)C(F)(F)F)cc2C(F)(F)F)c1F [Compound 10] | ≥ 90% | ≥ 90% | ≥ 90% | ≥ 90% | ≥ 90% | ≥ 90% | ≥ 90% | 100% | 100% | 100% | 100% | 100% | 100% | 100%
12 | N#CCCCN(C(=O)c1ccc(F)nc1)c1cccc(C(=O)Nc2c(I)cc(C(F)(C(F)(F)F)C(F)(F)F)cc2C(F)(F)F)c1F [Compound 15] | ≥ 90% | ≥ 90% | ≥ 90% | ≥ 90% | ≥ 90% | ≥ 90% | ≥ 90% |  |  |  |  |  |  | 

From patent US12454510B2, “Isophthalamide compound and use thereof” (METISA BIOTECHNOLOGY CO., LTD, priority 2019, dated 2025)
